The record followed here is patent US11174286B2, “Inhibitors of NF κ-B activity for treatment of diseases and disorders” (priority 2014, dated 2021).

For assay [1], the system named is carrageenan-induced inflammation in rat paw. As to the kind of experiment: Carrageenan-induced paw edema (plethysmometer). Format: in vivo, albino rats. The source says:
INFLAMMATORY DISEASES AND FIBROTIC DISEASES: NF-κB is a prototypical proinflammatory signaling pathway, based on the activation of NF-κB by proinflammatory cytokines such as interleukin 1 (IL-1) and tumor necrosis factor a (TNF-α), and the subsequent role of NF-κB in the expression of other proinflammatory genes including cytokines, chemokines, and adhesion molecules. Inhibition of NF-κB can be expected to result in amelioration of inflammation. This was confirmed experimentally using peptide SEQ ID NO:042 in a standard model of carrageenan-induced inflammation in rat paw. This method measures acute inflammation induced by injection of carrageenan (Sakat et al., Inflammation 37(1):1-9 (2014)) and is used extensively to study antiinflammatory properties of drugs. Carrageenan is known to activate NF-κB (Bhattacharyya et al., Mediators of Inflammation, Vol. 2013, Article ID 397642; Bhattacharyya et al., American Journal of Physiology 301(3):G475-G486 (2011); Ellis et al., Ann. Rheum. Dis. 59:303-307 (2000); Pierce et al., J. Biol. Chem. 272:21096-21103 (1997)). Example 6 and FIG. 11 show the high efficacy of peptide SEQ ID NO:042 in alleviating edema and inflammation. […] Treatment of inflammation requires the subsidence of TNF-α and NF-κB pathways, which are part of the action of the disclosed peptides.
Groups (n=6) of healthy albino rats were injected in the paw with 3 mg carrageenan alone in phosphate buffered saline (PBS). […] As inflammation became obvious (15 min) in carrageenan-treated animals, test animals were injected with 70 nanogram of peptide SEQ ID NO:001, or peptide SEQ ID NO:042 in PBS. A plethysmometer was used to measure paw edema at 0, 0.5, 1.0, 2.0, 3.0, 6.0, 12.0, and 24 hours after injections. […] In contrast, animals not receiving peptide continued to show significant inflammation at all time points.
Background: The carrageenan paw model is a standard test of acute inflammation.

Assay [2] has as its system oral cancer cell line AW 13516. Briefly: Cell cycle analysis by flow cytometry (propidium iodide). Format: cell-based. The procedure: Cell cycle analysis was performed in oral cancer cell line AW 13516 after treatment with TGF-β alone, peptide alone or in combination. Cell cycle analysis was carried out using flow cytometry (Guava Technologies) using reagent kits provided by the instrument maker. The samples were prepared after propidium iodide staining and flow cytometric analysis was performed. TGF-β causes G1 arrest in cells as expected. The disclosed peptides in contrast markedly shortened the G1 phase and prolonged the S-phase, promoting a more faithful synthesis of DNA prior to cell division. Thus, the disclosed peptides have effects which differ from the effects of growth factors.
Background: A flow cytometer gives signals particle by particle.

Assay [3] has as its system chemically induced tumor in hamster cheek. Briefly: DMBA-induced oral tumor in hamster buccal pouch, topical peptide gel. The assay is classed as in vivo, Syrian hamsters. The procedure: A peptide inhibitor of NF κB activity disclosed herein was tested for treatment of induced oral tumors. Male Syrian hamsters aged 8 to 10 weeks weighing between 100 and 110 g were used. The animals were fed a standard pellet diet and water ad libitum, and were maintained in accordance with applicable ethical and institutional guidelines. The animals were randomized into 10 groups of 8 animals each, and the right buccal pouches of hamsters in groups 1-5 were painted with 0.5% 7,12-dimethylbenz[a]anthracene (DMBA) in liquid paraffin three times a week for 12 weeks.
Mucoadhesive gels containing peptides were prepared by slowly adding Noveon AA1 (0.675% w/w) and Carbopol 971P NF (0.788% w/w) to purified water. The mixture was stirred at 1,025 rpm for one hour to allow full rehydration. Then 0.9% w/w glycerine, 2-phenoxyethanol, benzyl alcohol, and EDTA were added, followed by mixing at 875 rpm for one hour at room temperature. Finally, the desired peptide was added to the gel, and the gel mixed at 875 rpm for one hour to homogenize the gel (Kavitha et al., Biochimie 102:56-67 (2014); Mallery et al., Pharm Res. 24(4):728-737 (2007)).
Hamsters in Group 1 received no further treatment. For hamsters in Groups 2 and 3, peptide gel was applied topically to the right buccal pouches of the hamsters from the 12th to the 18th week daily at concentrations of 10 microgram/ml (2.35 microgram dosage of peptide per application) and 100 microgram/ml (23.5 microgram dosage of peptide per application) respectively. Another group of animals painted with liquid paraffin alone served as control. The experiment was terminated after 18 weeks and all animals were sacrificed by cervical dislocation after an overnight fast.

Assay [4] deals with carrageenan-induced hyperalgesia in rat paw. As to the kind of experiment: Carrageenan-induced hyperalgesia in rat paw (modified Randell-Selitto paw withdrawal method). The assay is classed as in vivo, albino rats. The following applies: 3 mg carrageenan, 70 nanogram peptide. The procedure:
To establish the efficacy of the disclosed peptide inhibitors of NF-κB activity in analgesia, hyperalgesia was induced in rat paws with injections of carrageenan. The experiment is as described in Example 5. Injection of carrageenan in a hind paw of rats produced severe hyperalgesia. […] Only the results with peptide SEQ ID NO:042 are shown here.
The ability of the disclosed peptides to affect nociception was determined using a modification of the Randell-Selitto paw withdrawal method. Groups (n=6) of healthy albino rats were injected in the paw with 3 mg carrageenan alone in phosphate buffered saline (PBS). […] As inflammation became obvious (15 min) in carrageenan-treated animals, test animals were injected with 70 nanogram of peptide SEQ ID NO:001, or peptide SEQ ID NO:042 in PBS. The animals are allowed to walk on a metal grid before and after injecting the drugs and the observations were noted. The scoring system was based on normal gait=1, marked limping=0.5, and three legged gait=0. The scores are transformed into percent analgesia and subjected to statistical analysis. The two peptides gave very similar results. The results shown in FIG. 10 are from animals treated with peptide SEQ ID NO:042.

The test system of a further assay is p65 subunit of NF κB. As to the kind of experiment: Western blot for p65 (NF κB) phosphorylation in SiHa cells. Format: cell-based. Particulars: Western blot (FIG. 4).
Assay [5] concerns smad2. Briefly: Phospho-Smad2 sandwich ELISA in MCF-7 cells (lack functional TBRII). Format: cell-based. The following applies: for phosphorylation of smad2: MCF-7 cells (do not express TBRII). The procedure:
(§1) Phosphorylation of smad2 was determined by Enzyme-Linked Immunosorbent Assay (ELISA) using a kit obtained from a commercial source. The Phospho-Smad2 Sandwich ELISA Kit is a solid phase sandwich enzyme-linked immunosorbent assay (ELISA) that recognizes endogenous levels of phospho-Smad2 (Ser465/467) and Smad3 (Ser423/425) proteins. A Smad2/3 Mouse Antibody has been coated on the microwells. After incubation with cell lysates, Smad2/3 proteins (phospho and nonphospho) are captured by the coated antibody. Following extensive washing, a Phospho-Smad2 (Ser465/467)/Smad3 (Ser423/425) Detection Antibody is added to detect captured phospho-Smad2 (Ser465/467) and phospho-Smad3 (Ser423/425) proteins. Anti-rabbit IgG, HRP-linked Antibody is then used to recognize the bound detection antibody. HRP substrate, TMB, is added to develop color. The magnitude of the absorbance for this developed color is proportional to the quantity of phospho-Smad2 (Ser465/467) and phospho-Smad3 (Ser423/425) proteins.
(In general: ELISA stands for enzyme-linked immunosorbent assay.)

In assay [6] the test system is smad2. Briefly: Phospho-Smad2 sandwich ELISA in HepG2 cells. Format: cell-based. Particulars: HepG2 cells (TBRII and TBRI present). The procedure:
TGF-β signaling requires both receptors.
as §1

A further assay deals with NF κB. As to the kind of experiment: NF κB luciferase reporter assay (dual luciferase) in transfected SiHa cells. The assay is classed as cell-based. Particulars: 24 hours of treatment. The procedure: SiHa cells (ATCC HTB-35) were seeded in the wells of a 96 well plate at 25,000 cells/well. The cells were transfected with the respective luciferase construct (p-SBE4, p-ARE-Luc in combination with FAST-1, p-NF κB) using Lipofectamine 2000 reagent (Invitrogen Technologies Inc.), as per the manufacturer's instructions. 18 hours post transfection; the cells were subjected to the respective treatments such as TGF-β, TNF-α, and the peptides. After 24 hours of treatment, the plates were removed from the incubator; medium from the cells was discarded. The wells were filled with 50 μl of PLB (passive lysis buffer) provided along with the Promega dual luciferase assay kit. The luciferase assay was performed as per the supplier's instruction manual, after transferring the lysates to a white plate for luminescence measurements. Expression of luciferase, and measurement of the resulting luminescence, thus provides a measurement of the extent of expression of NF-κB.
As per the data in FIG. 2, the disclosed peptides inhibit TNF-α-activation of NF-κB. As per the data in FIG. 3, the disclosed peptide LFAP[D]EA (SEQ ID NO:013) inhibits both TNF-α-induced and constitutive activation of NF-κB. The ratio between the firely/renilla luciferase was used to compare TNF-α induced activation of NF-κB over constitutive NF-κB activity.

Non-standard residues stand in square brackets, D forms with d. No end group written: not given here.

In the case of ANVAENA [SEQ ID NO:042], the “anti-inflammatory efficacy relative to that reported for celecoxib” value in assay [1] (compared with literature value for celecoxib) is recorded as “approximately 103 times”. Further, in assay [1] (rat paw, 3 mg carrageenan, 70 nanogram peptide, 2 h), the “edema and inflammation at 2 h” value is “significant decrease in edema and inflammation”. The “inflammation by 3.0 h” value in assay [1] (rat paw, 3 mg carrageenan, 70 nanogram peptide, 3.0 h) is recorded as “subsided almost completely”. The “inflammation up to 24 h post injection” value in assay [1] (rat paw, 3 mg carrageenan, 70 nanogram peptide, up to 24 h) was “no inflammation was noted”. Further, in assay [2], the “% CELLS IN G1 Phase” value stood at 62.73%, the “% CELLS IN Go Phase” value is given as 2.02%, the “% CELLS IN M Phase” value is listed as 19.10% and the “% CELLS IN S Phase” value turned out to be 16.14%. In addition, the “histology of DMBA-treated tissue after peptide treatment” value in assay [3] (hamster cheek, FIG. 6C) is “an effect at the microscopic level”. The “tumor growth in hamster cheek” value in assay [3] (topical, six weeks, 100 microgram/ml (23.5 microgram per application), after DMBA) is given as “marked inhibition of tumor growth”. Further, in assay [4], the “nociception (hyperalgesia)” value is recorded as “markedly ameliorated nociception”.
Consider TWSPEL [SEQ ID NO:017], for which the “inhibition of phosphorylation of the p65 subunit of NF κB” value (“inhibition … of NF κB” below) with p65 subunit of NF κB was “inhibition of phosphorylation”.
In the case of “SEQ ID NO:057: peptide of FIG. 8B (SEQ ID NOS:041 through 069), disclosed in U.S. Pat. Nos. 5,661,127, 5,780,436 and 6,638,912; sequence not printed (LIAGEG)”, in assay [2], the “% CELLS IN G1 Phase” value is given as 52.59%, the “% CELLS IN Go Phase” value was 14.59%, the “% CELLS IN M Phase” value worked out at 11.18% and the “% CELLS IN S Phase” value was found to be 21.63%.
The corresponding values for LIAPEA [SEQ ID NO:061] are 60.05%, 2.33%, 18.59% and 19.03%.
Consider `NC(=O)c1ccc(-c2nc(-c3ccc4c(c3)OCO4)c(-c3ccccn3)[nH]2)cc1` [SB431542, 4-[4-(1,3-benzodioxol-5-yl)-5-(2-pyridinyl)-1H-imidazol-2-yl]benzamide, reference compound], for which the “effect on peptide-induced smad2 phosphorylation” value in the assay with smad2 [5] (MCF-7 cells, with peptide LIANAK) was “did not prevent smad2 phosphorylation”.
TWAPES [SEQ ID NO:016]: in the assay on p65 subunit of NF κB, the “inhibition … of NF κB” value is “inhibition of phosphorylation”.
Still for that read-out and setting: in the case of LWAEAK [SEQ ID NO:008] it was “inhibition of phosphorylation”.
Take LIANAK [SEQ ID NO:060]: the “phosphorylation of smad2” value in the assay with smad2 [6] is “induce phosphorylation”; in the assay with smad2 [5], “causing the phosphorylation of smad2”.
For TNWAEN [SEQ ID NO:015], the “inhibition … of NF κB” value in the assay with p65 subunit of NF κB is listed as “inhibition of phosphorylation”.
Regarding LFAP[D]EA (LFAP[dE]A) [SEQ ID NO:013], in assay [2], the “% CELLS IN G1 Phase” value stood at 62.05%, the “% CELLS IN Go Phase” value is on record as 2.87%, the “% CELLS IN M Phase” value was found to be 14.86% and the “% CELLS IN S Phase” value was found to be 20.21%. Also, the “inhibition of constitutive activation of NF-κB” value with NF κB (Renilla luciferase) is given as “inhibits”. In addition, in the assay on NF κB (firefly luciferase), the “inhibition of TNF-α-induced activation of NF-κB” value is given as “inhibits”.
As to YMAPEV [SEQ ID NO:001], in assay [1] (rat paw, 70 nanogram peptide, 0 to 24 hours), the “paw edema pattern compared with peptide SEQ ID NO:042” value is “nearly identical patterns”. Further, the “nociception (hyperalgesia)” value in assay [4] was “markedly ameliorated nociception”.
Consider TGF-β, for which the “phosphorylation of smad2” value in the assay on smad2 [6] is reported as “induce phosphorylation”. In addition, in assay [2], the “% CELLS IN G1 Phase” value is recorded as 79.83%, the “% CELLS IN Go Phase” value is listed as 8.32%, the “% CELLS IN M Phase” value was 8.23% and the “% CELLS IN S Phase” value came to 3.62%. Besides, the “phosphorylation of smad2” value with smad2 [5] is recorded as “do not respond”.
In the case of LIAP[D]EA (LIAP[dE]A) [SEQ ID NO:014], in assay [2], the “% CELLS IN G1 Phase” value worked out at 62.69%, the “% CELLS IN Go Phase” value turned out to be 3.19%, the “% CELLS IN M Phase” value came to 13.52% and the “% CELLS IN S Phase” value is 19.78%.
